Experimental data: patent publication US10294202B2, “Pyrrolidinones as herbicides” (FMC Corporation, priority 2013, dated 2019)

Key:
wheat = experiment: Test A pre-/postemergence herbicide test; type: in vivo, Triticum aestivum; conditions: Postemergence
Summary of the method: (§1)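 Formulated compound (non-phytotoxic solvent, surfactant) sprayed pre- onto soil of seeded loam/sand pots or post- onto seedlings at 1–2 leaves; ~10 d greenhouse; 0–100 visual control rating versus untreated.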

rice = experiment: Test B flooded paddy test; type: in vivo, Oryza sativa; conditions: Flood, scale of 0 to 100 where 0 is no effect and 100 is complete control
Summary of the method: (§2)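 Visual ratings from 0, meaning no effect, up to 100, meaning complete control, were made by comparison with untreated controls 13 to 15 days after treatment. Test compounds went straight into floodwater standing 3 cm over the soil of pots holding 2-leaf seedlings.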

ryegrass, Italian = experiment: Test A pre-/postemergence herbicide test; type: in vivo, Lolium multiflorum
Summary of the method: as §1

sedge, umbrella = experiment: Test B flooded paddy test; type: in vivo, Cyperus difformis; conditions: Flood, scale of 0 to 100 where 0 is no effect and 100 is complete control
Summary of the method: as §2

barnyardgrass [1] = experiment: Test A pre-/postemergence herbicide test; type: in vivo, Echinochloa crus-galli
Summary of the method: as §1

giant foxtail = experiment: Test A pre-/postemergence herbicide test; type: in vivo, Setaria faberii
Summary of the method: as §1

ducksalad = experiment: Test B flooded paddy test; type: in vivo, Heteranthera limosa; conditions: Flood, scale of 0 to 100 where 0 is no effect and 100 is complete control
Summary of the method: as §2

ragweed = experiment: Test A pre-/postemergence herbicide test; type: in vivo, Ambrosia elatior
Summary of the method: as §1

barnyardgrass [2] = experiment: Test B flooded paddy test; type: in vivo, Echinochloa crus-galli; conditions: Flood, scale of 0 to 100 where 0 is no effect and 100 is complete control
Summary of the method: as §2

blackgrass = experiment: Test A postemergence herbicide test; type: in vivo, Alopecurus myosuroides
Summary of the method: (§3)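 Injury was rated visually about 10 days after treatment on a 0 (no effect) to 100 (complete control) scale, compared with untreated plants. Test chemicals were sprayed postemergence onto greenhouse plants 2–10 cm high at one to two leaves, grown in a loam–sand blend.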

galium = experiment: Test A postemergence herbicide test; type: in vivo, Galium aparine
Summary of the method: as §3

pigweed = experiment: Test A pre-/postemergence herbicide test; type: in vivo, Amaranthus retroflexus
Summary of the method: as §1

corn = experiment: Test A pre-/postemergence herbicide test; type: in vivo, Zea mays; conditions: Postemergence
Summary of the method: as §1

kochia = experiment: Test A pre-/postemergence herbicide test; type: in vivo, Kochia scoparia
Summary of the method: as §1

[3] = 125 g ai/ha, visual rating on 0 to 100 scale (0 no effect, 100 complete control), approx. 10 days
[4] = 500 g ai/ha, 0 to 100 scale (0 no effect, 100 complete control)
[5] = Postemergence, 125 g ai/ha, visual rating on 0 to 100 scale (0 no effect, 100 complete control), approx. 10 days
[6] = Postemergence, 500 g ai/ha, 0 to 100 scale (0 no effect, 100 complete control)
[7] = Preemergence, 125 g ai/ha, 0 to 100 scale where 0 is no effect and 100 is complete control
[8] = Preemergence, 500 g ai/ha, visual rating on 0 to 100 scale (0 no effect, 100 complete control)
[9] = 125 g ai/ha, 0 to 100 scale, 0 is no effect, 100 is complete control
[10] = 125 g ai/ha, visual rating, 0 to 100 scale, 0 no effect, 100 complete control, approximately 10 days, preemergence
[11] = Postemergence, 125 g ai/ha, 0 to 100 scale, 0 is no effect, 100 is complete control
[12] = preemergence, 500 g ai/ha, 0 to 100 scale, 0 is no effect and 100 is complete control

O=C1NCC(c2cccc(-n3ccc(C(F)(F)F)n3)c2)C1C(=O)Nc1ccccc1C(F)(F)F (stereo not drawn) [Compound 329]
Plant response rating, Wheat (wheat; [3]): 0 | Plant response rating, Wheat (wheat; [4]): 0 | Plant response rating, Rice (rice; 500 g ai/ha): 0 | Plant response rating, Ryegrass, Italian (ryegrass, Italian; [5]): 0 | Plant response rating, Ryegrass, Italian (ryegrass, Italian; [6]): 0 | Plant response rating, Ryegrass, Italian (ryegrass, Italian; [7]): 0 | Ryegrass, Italian plant response rating (ryegrass, Italian; [8]): 0 | Plant response rating, Sedge, Umbrella (sedge, umbrella; 500 g ai/ha): 0 | Plant response rating, Barnyardgrass (barnyardgrass [1]; [5]): 0 | Plant response rating, Barnyardgrass (barnyardgrass [1]; [6]): 0 | Plant response rating, Barnyardgrass (barnyardgrass [1]; [7]): 0 | Barnyardgrass plant response rating (barnyardgrass [1]; [8]): 0 | Plant response rating, Foxtail, Giant (giant foxtail; [5]): 0 | Plant response rating, Foxtail, Giant (giant foxtail; [6]): 30 | Plant response rating, Foxtail, Giant (giant foxtail; [7]): 0 | Foxtail, Giant plant response rating (giant foxtail; [8]): 60 | Plant response rating, Ducksalad (ducksalad; 500 g ai/ha): 0 | Plant response rating, Ragweed (ragweed; [5]): 0 | Plant response rating, Ragweed (ragweed; [6]): 0 | Plant response rating, Ragweed (ragweed; [7]): 0 | Ragweed plant response rating (ragweed; [8]): 0 | Plant response rating, Barnyardgrass (barnyardgrass [2]; 500 g ai/ha): 0 | Plant response rating, Blackgrass (blackgrass; [3]): 0 | Plant response rating, Blackgrass (blackgrass; [4]): 0 | Plant response rating, Galium (galium; [3]): 0 | Plant response rating, Galium (galium; [4]): 0 | Plant response rating, Pigweed (pigweed; [5]): 0 | Plant response rating, Pigweed (pigweed; [6]): 0 | Plant response rating, Pigweed (pigweed; [7]): 0 | Pigweed plant response rating (pigweed; [8]): 0 | Plant response rating, Corn (corn; [3]): 0 | Plant response rating, Corn (corn; [4]): 0 | Plant response rating, Kochia (kochia; [5]): 0 | Plant response rating, Kochia (kochia; [6]): 0 | Plant response rating, Kochia (kochia; [7]): 0 | Kochia plant response rating (kochia; [8]): 0

CCc1cccc(C2CNC(=O)C2C(=O)Nc2ccc(F)c(F)c2F)c1 (racemic) [Compound 171]
Plant response rating, Wheat (wheat; [9]): 0 | Wheat plant response rating (0 to 100 scale, 0 is no effect, 100 is complete control) (wheat; 500 g ai/ha): 50 | Plant response rating, Rice (rice; 500 g ai/ha): 0 | Plant response rating, Ryegrass, Italian (ryegrass, Italian; [10]): 0 | Plant response rating, Ryegrass, Italian (ryegrass, Italian; [11]): 20 | Ryegrass, Italian plant response rating (0 to 100 scale, 0 is no effect, 100 is complete control) (ryegrass, Italian; Postemergence, 500 g ai/ha): 30 | Plant response rating, Ryegrass, Italian (ryegrass, Italian; [12]): 30 | Plant response rating, Sedge, Umbrella (sedge, umbrella; 500 g ai/ha): 0 | Plant response rating, Barnyardgrass (barnyardgrass [1]; [10]): 90 | Plant response rating, Barnyardgrass (barnyardgrass [1]; [11]): 90 | Barnyardgrass plant response rating (0 to 100 scale, 0 is no effect, 100 is complete control) (barnyardgrass [1]; Postemergence, 500 g ai/ha): 90 | Plant response rating, Barnyardgrass (barnyardgrass [1]; preemergence, 500 g ai/ha, 0 to 100 scale (0 no effect, 100 complete control)): 90 | Plant response rating, Foxtail, Giant (giant foxtail; [10]): 90 | Plant response rating, Foxtail, Giant (giant foxtail; [11]): 60 | Foxtail, Giant plant response rating (0 to 100 scale, 0 is no effect, 100 is complete control) (giant foxtail; Postemergence, 500 g ai/ha): 80 | Plant response rating, Foxtail, Giant (giant foxtail; preemergence, 500 g ai/ha, 0 to 100 scale): 90 | Plant response rating, Ducksalad (ducksalad; 500 g ai/ha): 100 | Plant response rating, Ragweed (ragweed; [10]): 0 | Plant response rating, Ragweed (ragweed; [11]): 0 | Ragweed plant response rating (0 to 100 scale, 0 is no effect, 100 is complete control) (ragweed; Postemergence, 500 g ai/ha): 30 | Plant response rating, Ragweed (ragweed; [12]): 30 | Plant response rating, Barnyardgrass (barnyardgrass [2]; 500 g ai/ha): 70 | Plant response rating, Blackgrass (blackgrass; [9]): 50 | Blackgrass plant response rating (0 to 100 scale, 0 is no effect, 100 is complete control) (blackgrass; 500 g ai/ha): 60 | Plant response rating, Galium (galium; [9]): 50 | Galium plant response rating (0 to 100 scale, 0 is no effect, 100 is complete control) (galium; 500 g ai/ha): 70 | Plant response rating, Pigweed (pigweed; [10]): 20 | Plant response rating, Pigweed (pigweed; [11]): 0 | Pigweed plant response rating (0 to 100 scale, 0 is no effect, 100 is complete control) (pigweed; Postemergence, 500 g ai/ha): 40 | Plant response rating, Pigweed (pigweed; [12]): 40 | Plant response rating, Corn (corn; [9]): 20 | Corn plant response rating (0 to 100 scale, 0 is no effect, 100 is complete control) (corn; 500 g ai/ha): 70 | Plant response rating, Kochia (kochia; [10]): 60 | Plant response rating, Kochia (kochia; [11]): 0 | Kochia plant response rating (0 to 100 scale, 0 is no effect, 100 is complete control) (kochia; Postemergence, 500 g ai/ha): 30 | Plant response rating, Kochia (kochia; [12]): 70

O=C1NCC(c2ccc(-c3ccccc3C(F)(F)F)cc2)C1C(=O)Nc1cccc(F)c1F (stereo not drawn) [Compound 236]
Plant response rating, Wheat (wheat; [9]): 0 | Wheat plant response rating (0 to 100 scale, 0 is no effect, 100 is complete control) (wheat; 500 g ai/ha): 0 | Plant response rating, Rice (rice; 1000 g ai/ha): 0 | Plant response rating, Ryegrass, Italian (ryegrass, Italian; [10]): 0 | Plant response rating, Ryegrass, Italian (ryegrass, Italian; [11]): 0 | Ryegrass, Italian plant response rating (0 to 100 scale, 0 is no effect, 100 is complete control) (ryegrass, Italian; Postemergence, 500 g ai/ha): 0 | Plant response rating, Ryegrass, Italian (ryegrass, Italian; [12]): 50 | Plant response rating, Sedge, Umbrella (sedge, umbrella; 1000 g ai/ha): 0 | Plant response rating, Barnyardgrass (barnyardgrass [1]; [10]): 0 | Plant response rating, Barnyardgrass (barnyardgrass [1]; [11]): 0 | Barnyardgrass plant response rating (0 to 100 scale, 0 is no effect, 100 is complete control) (barnyardgrass [1]; Postemergence, 500 g ai/ha): 0 | Plant response rating, Barnyardgrass (barnyardgrass [1]; [12]): 0 | Plant response rating, Foxtail, Giant (giant foxtail; [10]): 0 | Plant response rating, Foxtail, Giant (giant foxtail; [11]): 0 | Foxtail, Giant plant response rating (0 to 100 scale, 0 is no effect, 100 is complete control) (giant foxtail; Postemergence, 500 g ai/ha): 0 | Plant response rating, Foxtail, Giant (giant foxtail; [12]): 0 | Plant response rating, Ducksalad (ducksalad; 1000 g ai/ha): 70 | Plant response rating, Ragweed (ragweed; [10]): 0 | Plant response rating, Ragweed (ragweed; [11]): 0 | Ragweed plant response rating (0 to 100 scale, 0 is no effect, 100 is complete control) (ragweed; Postemergence, 500 g ai/ha): 0 | Plant response rating, Ragweed (ragweed; [12]): 30 | Plant response rating, Barnyardgrass (barnyardgrass [2]; 1000 g ai/ha): 40 | Plant response rating, Blackgrass (blackgrass; [9]): 0 | Blackgrass plant response rating (0 to 100 scale, 0 is no effect, 100 is complete control) (blackgrass; 500 g ai/ha): 0 | Plant response rating, Galium (galium; [9]): 0 | Galium plant response rating (0 to 100 scale, 0 is no effect, 100 is complete control) (galium; 500 g ai/ha): 0 | Plant response rating, Pigweed (pigweed; [10]): 0 | Plant response rating, Pigweed (pigweed; [11]): 0 | Pigweed plant response rating (0 to 100 scale, 0 is no effect, 100 is complete control) (pigweed; Postemergence, 500 g ai/ha): 0 | Plant response rating, Pigweed (pigweed; [12]): 0 | Plant response rating, Corn (corn; [9]): 0 | Corn plant response rating (0 to 100 scale, 0 is no effect, 100 is complete control) (corn; 500 g ai/ha): 0 | Plant response rating, Kochia (kochia; [10]): 0 | Plant response rating, Kochia (kochia; [11]): 0 | Kochia plant response rating (0 to 100 scale, 0 is no effect, 100 is complete control) (kochia; Postemergence, 500 g ai/ha): 0 | Plant response rating, Kochia (kochia; [12]): 0
